Consider 4 molecules from patent US6407094B1, “Glutamate receptor antagonists” (Hoffmann-la Roche Inc., priority 1999, dated 2002).

The target of one data set is T1, rat mGlu2 receptor (Rattus norvegicus, UniProt P31421).
T1 construct: expressed in transfected cells; host or cells: CHO cells, stably transfected with pcD1mGR2 (pcDNA I-amp), G-418 selected; membranes used
Nature of the data set: [3H]-LY354740 binding on mGlu2 transfected CHO cell membranes.

pKi: −log10 of the molar value.

T1 sequence (P31421 19-872): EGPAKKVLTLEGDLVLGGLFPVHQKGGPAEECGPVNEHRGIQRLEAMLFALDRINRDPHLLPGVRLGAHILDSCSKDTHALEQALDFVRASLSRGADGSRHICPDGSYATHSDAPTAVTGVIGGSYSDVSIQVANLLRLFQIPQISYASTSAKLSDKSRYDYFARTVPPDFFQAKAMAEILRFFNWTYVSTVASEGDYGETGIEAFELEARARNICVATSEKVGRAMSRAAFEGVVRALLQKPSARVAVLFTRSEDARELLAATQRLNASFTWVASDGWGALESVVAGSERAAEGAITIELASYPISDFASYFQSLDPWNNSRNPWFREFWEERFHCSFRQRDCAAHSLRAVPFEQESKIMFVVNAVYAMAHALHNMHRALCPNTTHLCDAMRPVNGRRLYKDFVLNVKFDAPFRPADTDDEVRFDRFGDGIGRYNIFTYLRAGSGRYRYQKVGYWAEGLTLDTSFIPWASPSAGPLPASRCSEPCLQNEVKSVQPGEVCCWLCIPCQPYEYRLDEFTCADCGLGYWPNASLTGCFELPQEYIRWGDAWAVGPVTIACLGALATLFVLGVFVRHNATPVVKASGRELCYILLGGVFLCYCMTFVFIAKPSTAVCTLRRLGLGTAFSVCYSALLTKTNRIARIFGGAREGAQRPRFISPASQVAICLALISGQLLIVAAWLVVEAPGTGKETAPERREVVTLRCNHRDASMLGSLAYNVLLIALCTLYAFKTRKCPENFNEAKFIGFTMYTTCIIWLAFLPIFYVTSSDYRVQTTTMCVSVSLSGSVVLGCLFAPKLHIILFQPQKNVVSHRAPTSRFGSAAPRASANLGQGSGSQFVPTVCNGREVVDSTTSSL

Consider `COc1cc2c(cc1-c1cc(F)ccc1F)NC(=O)CC(c1cccc(-n3ccnn3)c1)=N2` [Example 83, 8-(2,5-Difluoro-phenyl)-7-methoxy-4-(3-[1,2,3]triazol-1-yl-phenyl)-1,3-dihydro-benzo[b][1,4]diazepin-2-one], for which the melting point (commonly the temperature of the solid-liquid transition) is 241 °C. On rat mGlu2 receptor, the pKi (commonly the Ki on a negative log10 scale, so that one unit is a factor of ten) is 7.92.
Taken in the same sequence, the figures for `Cc1cc(-c2cccc(C3=Nc4cc(O)c(-c5ccccc5F)cc4NC(=O)C3)c2)on1` [Example 89, 8-(2-Fluoro-phenyl)-7-hydroxy-4-[3-(3-methyl-isoxazol-5-yl)-phenyl]-1,3-dihydro-benzo[b][1,4]diazepin-2-one] were 237 °C and 7.82.
Taken in the same sequence, the figures for `N#Cc1cccc(C2=Nc3cc(O)c(-c4cc(F)ccc4F)cc3NC(=O)C2)c1` [Example 90, 3-[7-(2,5-Difluoro-phenyl)-8-hydroxy-4-oxo-4,5-dihydro-3H-benzo[b][1,4]diazepin-2-yl]-benzonitrile] were > 250 °C and 8.22.
Taken in the same sequence, the figures for `O=C1CC(c2cccc(-n3ccnc3)c2)=Nc2cc(O)c(C#Cc3ccc(F)cc3)cc2N1` [Example 91, 8-(4-Fluoro-phenylethynyl)-7-hydroxy-4-(3-imidazol-1-yl-phenyl)-1,3-dihydro-benzo[b][1,4]diazepin-2-one] were 247 °C and 7.89.
